The record followed here is US20250270190A1, “KIT INHIBITORS” (BLUEPRINT MEDICINES CORPORATION, priority 2022, published 2025).

Where a name gives a salt, the structure may show the parent alone.

This test deals with T1, c-kit autophosphorylation (Phospho c-Kit Tyr721) in HMC 1.1 (exon 11/13) cells, V654A (Homo sapiens, UniProt P10721, V560G/V654A).
T1 construct: endogenous in cells; host or cells: HMC 1.1 (exon 11/13) cells
T1 sequence (P10721 26-976 V560G/V654A): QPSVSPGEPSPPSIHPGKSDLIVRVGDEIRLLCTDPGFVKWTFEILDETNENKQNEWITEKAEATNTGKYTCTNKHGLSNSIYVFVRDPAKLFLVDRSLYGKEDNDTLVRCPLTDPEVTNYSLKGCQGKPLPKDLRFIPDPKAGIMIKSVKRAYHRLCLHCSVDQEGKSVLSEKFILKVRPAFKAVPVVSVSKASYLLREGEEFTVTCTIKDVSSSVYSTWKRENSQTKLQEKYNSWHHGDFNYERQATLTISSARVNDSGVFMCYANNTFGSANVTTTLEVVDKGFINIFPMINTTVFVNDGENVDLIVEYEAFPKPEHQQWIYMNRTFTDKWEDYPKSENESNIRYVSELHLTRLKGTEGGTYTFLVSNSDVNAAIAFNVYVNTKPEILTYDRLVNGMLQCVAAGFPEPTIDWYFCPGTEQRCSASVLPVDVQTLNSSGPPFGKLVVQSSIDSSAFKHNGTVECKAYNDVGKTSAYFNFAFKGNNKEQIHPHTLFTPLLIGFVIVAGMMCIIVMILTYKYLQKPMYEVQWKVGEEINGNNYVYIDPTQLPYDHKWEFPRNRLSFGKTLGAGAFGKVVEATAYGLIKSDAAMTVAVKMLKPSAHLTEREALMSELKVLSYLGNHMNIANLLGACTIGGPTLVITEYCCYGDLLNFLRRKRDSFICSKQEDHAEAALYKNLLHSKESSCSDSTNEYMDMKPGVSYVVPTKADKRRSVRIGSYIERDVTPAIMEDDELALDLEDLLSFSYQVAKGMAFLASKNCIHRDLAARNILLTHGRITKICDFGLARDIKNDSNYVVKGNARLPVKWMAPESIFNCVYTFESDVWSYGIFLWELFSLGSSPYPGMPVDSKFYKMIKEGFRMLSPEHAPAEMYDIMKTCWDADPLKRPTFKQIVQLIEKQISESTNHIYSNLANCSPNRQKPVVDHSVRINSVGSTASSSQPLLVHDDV
As to the kind of experiment: pKIT Meso Scale Discovery (MSD) assay, inhibition of autophosphorylation of KIT, HMC1.1_V654A. The format is cell-based. The following applies: Table 1, cell line not named for Table 1, b1056 names pKIT HMC1.1_V654A, read-out: Code (IC50 for inhibition of autophosphorylation of KIT, pKIT MSD assay). In a few lines: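 HMC1.1 cells were serum-starved for 4 h in serum-free, iron-free, phenol red-free IMDM, then treated with compound in dose-response for 90 min at 37 °C. Staurosporine and DMSO served as controls. Lysates were analysed by MSD electrochemiluminescence immunoassay for phospho-c-Kit Tyr721, and % inhibition of autophosphorylation was derived.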
Broadly, the IC50 is the concentration that gives 50% inhibition. On to `CCNc1cc(Nc2cc(N)nc(CF)n2)ncc1C(=O)NC12CC(CO)(C1)C2` [Compound 96, 6-((6-amino-2-(fluoromethyl)pyrimidin-4-yl)amino)-4-(ethylamino)-N-(3-(hydroxymethyl)bicyclo[1.1.1]pentan-1-yl)nicotinamide], for which the IC50 lay within 10 to 40 nM.

For `Cn1cc(-c2cnc(Nc3cc(N)nc(C(F)F)n3)cc2O[C@H]2C[C@@H](O)C2)cn1` [Compound 107, (1s,3s)-3-((2-((6-amino-2-(difluoromethyl)pyrimidin-4-yl)amino)-5-(1-methyl-1H-pyrazol-4-yl)pyridin-4-yl)oxy)cyclobutan-1-ol], the IC50 fell in the range of 10 to 40 nM.

`CNC(=O)c1cnc(Nc2cc(N)nc(CF)n2)cc1N[C@@H](C)C(F)F` [Compound 46, (S)-6-((6-amino-2-(fluoromethyl)pyrimidin-4-yl)amino)-4-((1,1-difluoropropan-2-yl)amino)-N-methylnicotinamide]: the IC50 is under 10 nM.

As for `CC(C)Nc1cc(Nc2cc(N)nc(C(F)F)n2)ncc1C(=O)NC1CC1` [Compound 60, 6-((6-amino-2-(difluoromethyl)pyrimidin-4-yl)amino)-N-cyclopropyl-4-(isopropylamino)nicotinamide trifluoroacetate], the 50% inhibitory concentration (IC50) is under 10 nM.

As for `Cn1cc(-c2cnc(Nc3cc(N)nc(C(F)F)n3)cc2OCC2CCCCO2)cn1` (stereo not drawn) [Compound 172, 2-(difluoromethyl)-N4-(5-(1-methyl-1H-pyrazol-4-yl)-4-((tetrahydro-2H-pyran-2-yl)methoxy)pyridin-2-yl)pyrimidine-4,6-diamine], the IC50 was in the range of 10 to 40 nM.

Take `Cn1cc(-c2cnc(Nc3cc(N)nc(C(F)F)n3)cc2OCC2CCCO2)cn1` (stereo not drawn) [Compound 143, 2-(difluoromethyl)-N4-(5-(1-methyl-1H-pyrazol-4-yl)-4-((tetrahydrofuran-2-yl)methoxy)pyridin-2-yl)pyrimidine-4,6-diamine]: the IC50 is under 10 nM.

With `COc1cc(Nc2cc(N)nc(C(F)F)n2)ncc1-c1cnn(CC(C)N(C)C)c1` (stereo not drawn) [Compound 150, 2-(difluoromethyl)-N4-(5-(1-(2-(dimethylamino)propyl)-1H-pyrazol-4-yl)-4-methoxypyridin-2-yl)pyrimidine-4,6-diamine], the half-maximal inhibitory concentration (IC50) is under 10 nM.

For the molecule `CC(C)(O)Cn1cc(-c2cnc(Nc3cc(N)nc(C(F)F)n3)cc2OC2CC2)cn1` [Compound 173, 1-(4-(6-((6-amino-2-(difluoromethyl)pyrimidin-4-yl)amino)-4-cyclopropoxypyridin-3-yl)-1H-pyrazol-1-yl)-2-methylpropan-2-ol], the IC50 was under 10 nM.

With `COc1cc(Nc2cc(N)nc(C(F)F)n2)ncc1-c1cnn(C2CNC2)c1` [Compound 76, N4-(5-(1-(azetidin-3-yl)-1H-pyrazol-4-yl)-4-methoxypyridin-2-yl)-2-(difluoromethyl)pyrimidine-4,6-diamine formate], the IC50 is over 40 nM.

As to `CC(C)Nc1cc(Nc2cc(N)nc(C(F)F)n2)ncc1C(=O)NCC1CC1` [Compound 86, 6-((6-amino-2-(difluoromethyl)pyrimidin-4-yl)amino)-N-(cyclopropylmethyl)-4-(isopropylamino)nicotinamide], the 50% inhibitory concentration (IC50) was 10 to 40 nM.

`Nc1cc(Nc2cc(NC3CC3)c(C(=O)NCc3ncco3)cn2)nc(C(F)F)n1` [Compound 135, 6-((6-amino-2-(difluoromethyl)pyrimidin-4-yl)amino)-4-(cyclopropylamino)-N-(oxazol-2-ylmethyl)nicotinamide]: the half-maximal inhibitory concentration (IC50) was under 10 nM.

With `Nc1cc(Nc2cc(OC3CC3)c(-c3cnn(C[C@H]4CCN4)c3)cn2)nc(C(F)F)n1` (single isomer, unassigned) [Compound 161, (R)-N4-(5-(1-(azetidin-2-ylmethyl)-1H-pyrazol-4-yl)-4-cyclopropoxypyridin-2-yl)-2-(difluoromethyl)pyrimidine-4,6-diamine or (S)-N4-(5-(1-(azetidin-2-ylmethyl)-1H-pyrazol-4-yl)-4-cyclopropoxypyridin-2-yl)-2-(difluoromethyl)pyrimidine-4,6-diamine], the IC50 is under 10 nM.

Turning to `Nc1cc(Nc2cc(OC3COC3)c(-c3cnn(C4CNC4)c3)cn2)nc(C(F)F)n1` [Compound 168, N4-(5-(1-(azetidin-3-yl)-1H-pyrazol-4-yl)-4-(oxetan-3-yloxy)pyridin-2-yl)-2-(difluoromethyl)pyrimidine-4,6-diamine formate], the IC50 is over 40 nM.

Turning to `CC(C)(O)Cn1cc(-c2cnc(Nc3cc(N)nc(C(F)F)n3)cc2OC(F)F)cn1` [Compound 181, 1-(4-(6-((6-amino-2-(difluoromethyl)pyrimidin-4-yl)amino)-4-(difluoromethoxy)pyridin-3-yl)-1H-pyrazol-1-yl)-2-methylpropan-2-ol], the IC50 is under 10 nM.

For the molecule `[2H]C([2H])([2H])NC(=O)c1cnc(Nc2cc(N)nc(C(F)F)n2)cc1NC1CC1` [Compound 31, 6-((6-amino-2-(difluoromethyl)pyrimidin-4-yl)amino)-4-(cyclopropylamino)-N-(methyl-d3)nicotinamide], the half-inhibitory concentration (IC50) was under 10 nM.

Regarding `CCNC(=O)c1cnc(Nc2cc(N)nc(C(F)F)n2)cc1N[C@@H](C)CF` [Compound 71, (S)-6-((6-amino-2-(difluoromethyl)pyrimidin-4-yl)amino)-N-ethyl-4-((1-fluoropropan-2-yl)amino)nicotinamide], the IC50 is under 10 nM.

For the molecule `COc1cc(Nc2cc(N)nc(C(F)F)n2)ncc1-c1cnn(CC2CCO2)c1` (stereo not drawn) [Compound 111, 2-(difluoromethyl)-N4-(4-methoxy-5-(1-(oxetan-2-ylmethyl)-1H-pyrazol-4-yl)pyridin-2-yl)pyrimidine-4,6-diamine], the half-inhibitory concentration (IC50) was under 10 nM.

With `COc1cc(Nc2cc(N)nc(C(F)F)n2)ncc1-c1cnn(C2COC2)c1` [Compound 78, 2-(difluoromethyl)-N4-(4-methoxy-5-(1-(oxetan-3-yl)-1H-pyrazol-4-yl)pyridin-2-yl)pyrimidine-4,6-diamine], the IC50 is under 10 nM.

As to `CNC(=O)c1cnc(Nc2cc(N)nc(C(F)F)n2)cc1NC1CC1` [Compound 23, 6-((6-amino-2-(difluoromethyl)pyrimidin-4-yl)amino)-4-(cyclopropylamino)-N-methylnicotinamide], the IC50 was under 10 nM.

As for `COc1cc(Nc2cc(N)nc(C(F)F)n2)ncc1-c1cnn(CCNCC(F)(F)F)c1` [Compound 197, 2-(difluoromethyl)-N4-(4-methoxy-5-(1-(2-((2,2,2-trifluoroethyl)amino)ethyl)-1H-pyrazol-4-yl)pyridin-2-yl)pyrimidine-4,6-diamine], the IC50 was under 10 nM.

With `Cc1noc(-c2cnc(Nc3cc(N)nc(C(F)F)n3)cc2NC(C)C)n1` [Compound 58, 2-(difluoromethyl)-N4-(4-(isopropylamino)-5-(3-methyl-1,2,4-oxadiazol-5-yl)pyridin-2-yl)pyrimidine-4,6-diamine], the concentration for half-maximal inhibition (IC50) is over 40 nM.

In the case of `Nc1cc(Nc2cc(NC3CC3)c(C(=O)NCc3ccccn3)cn2)nc(C(F)F)n1` [Compound 153, 6-((6-amino-2-(difluoromethyl)pyrimidin-4-yl)amino)-4-(cyclopropylamino)-N-(pyridin-2-ylmethyl)nicotinamide], the half-maximal inhibitory concentration (IC50) is under 10 nM.

Consider `C[C@@H](Oc1cc(Nc2cc(N)nc(C(F)F)n2)ncc1-c1cnn(C)c1)C(F)(F)F` [Compound 163, (R)-2-(difluoromethyl)-N4-(5-(1-methyl-1H-pyrazol-4-yl)-4-((1,1,1-trifluoropropan-2-yl)oxy)pyridin-2-yl)pyrimidine-4,6-diamine], for which the concentration for half-maximal inhibition (IC50) is under 10 nM.

Take `CNc1cc(Nc2cc(N)nc(C(F)F)n2)ncc1-c1cn(C)nn1` [Compound 17, 2-(difluoromethyl)-N4-(5-(1-methyl-1H-1,2,3-triazol-4-yl)-4-(methylamino)pyridin-2-yl)pyrimidine-4,6-diamine]: the half-maximal inhibitory concentration (IC50) lay in the range of 10 to 40 nM.

As to `COc1cc(Nc2cc(N)nc(C(F)F)n2)ncc1-c1cnn(C2CN(C)C2)c1` [Compound 103, 2-(difluoromethyl)-N4-(4-methoxy-5-(1-(1-methylazetidin-3-yl)-1H-pyrazol-4-yl)pyridin-2-yl)pyrimidine-4,6-diamine], the IC50 is under 10 nM.

On to `CNC(C)(C)Cn1cc(-c2cnc(Nc3cc(N)nc(C(F)F)n3)cc2OC(F)(F)F)cn1` [Compound 200, 2-(difluoromethyl)-N4-(5-(1-(2-methyl-2-(methylamino)propyl)-1H-pyrazol-4-yl)-4-(trifluoromethoxy)pyridin-2-yl)pyrimidine-4,6-diamine], for which the IC50 was under 10 nM.

On to `CNc1cc(Nc2cc(N)nc(C(F)F)n2)ncc1-c1cnn(C)n1` [Compound 18, 2-(difluoromethyl)-N4-(5-(2-methyl-2H-1,2,3-triazol-4-yl)-4-(methylamino)pyridin-2-yl)pyrimidine-4,6-diamine], for which the concentration for half-maximal inhibition (IC50) was in the range of 10 to 40 nM.

For `Nc1cc(Nc2cc(OC3CC3)c(-c3cnn(CC4CCO4)c3)cn2)nc(C(F)F)n1` (stereo not drawn) [Compound 166, N4-(4-cyclopropoxy-5-(1-(oxetan-2-ylmethyl)-1H-pyrazol-4-yl)pyridin-2-yl)-2-(difluoromethyl)pyrimidine-4,6-diamine], the concentration for half-maximal inhibition (IC50) is under 10 nM.

On to `COc1cc(Nc2cc(N)nc(C(F)F)n2)ncc1-c1cnn(CCN2CCC2)c1` [Compound 137, N4-(5-(1-(2-(azetidin-1-yl)ethyl)-1H-pyrazol-4-yl)-4-methoxypyridin-2-yl)-2-(difluoromethyl)pyrimidine-4,6-diamine], for which the IC50 was 10 to 40 nM.

On to `C[C@@H](CF)Nc1cc(Nc2cc(N)nc(C(F)F)n2)ncc1C(=O)NCc1cocn1` [Compound 176, (S)-6-((6-amino-2-(difluoromethyl)pyrimidin-4-yl)amino)-4-((1-fluoropropan-2-yl)amino)-N-(oxazol-4-ylmethyl)nicotinamide], for which the IC50 was under 10 nM.
